pIC50: −log10 of the molar value. Where two headings read alike, the source gives them in different places. Peptide text beside a SMILES is read from it.

Format in all cases: biochemical
Assay [1] addresses T1, HDAC3 (Homo sapiens, UniProt O15379).
T1 construct: purchased Reaction Biology Corporation (assay run by the CRO)
Put plainly: HDAC3 inhibition, full IC50 measurement (Reaction Biology; fluorogenic p53 peptide RHKK(Ac)AMC). As to conditions: single trial. As for the experimental part:
(§1) The assay was performed using 50 μM fluorogenic peptide from p53 residues 379-382 [RHKK(Ac)AMC] in a base reaction buffer of 50 mM Tris-HCl at pH 8.0, 137 mM NaCl, 2.7 mM KCl, 1 mM MgCl2, and freshly added 1 mg/ml BSA and 1% DMSO. Peptides were first dissolved in DMSO and then added to the reaction mixture with the enzyme using acoustic technique, enough to reach the desired concentration for that assay point. Peptide concentrations were calculated based on mass of lyophilized peptide and its molecular weight. The substrate was then added and incubated for 1 hour at 30 °C in a sealed container. After the incubation, developer was added to stop the reaction and develop color. Kinetic measurements were then performed for 20 min with Envision with 5 min intervals (Ex/Em = 360/460 nm). The endpoint after plateau was taken for IC50 measurement.
(§2) In cases where duplicate measures are used, average data is reported in the main text or Supplementary Tables.

Assay [2] deals with T2, HDAC6 (Homo sapiens, UniProt Q9UBN7).
T2 construct: purchased Reaction Biology Corporation (assay run by the CRO)
T2 sequence (Q9UBN7 1-1215): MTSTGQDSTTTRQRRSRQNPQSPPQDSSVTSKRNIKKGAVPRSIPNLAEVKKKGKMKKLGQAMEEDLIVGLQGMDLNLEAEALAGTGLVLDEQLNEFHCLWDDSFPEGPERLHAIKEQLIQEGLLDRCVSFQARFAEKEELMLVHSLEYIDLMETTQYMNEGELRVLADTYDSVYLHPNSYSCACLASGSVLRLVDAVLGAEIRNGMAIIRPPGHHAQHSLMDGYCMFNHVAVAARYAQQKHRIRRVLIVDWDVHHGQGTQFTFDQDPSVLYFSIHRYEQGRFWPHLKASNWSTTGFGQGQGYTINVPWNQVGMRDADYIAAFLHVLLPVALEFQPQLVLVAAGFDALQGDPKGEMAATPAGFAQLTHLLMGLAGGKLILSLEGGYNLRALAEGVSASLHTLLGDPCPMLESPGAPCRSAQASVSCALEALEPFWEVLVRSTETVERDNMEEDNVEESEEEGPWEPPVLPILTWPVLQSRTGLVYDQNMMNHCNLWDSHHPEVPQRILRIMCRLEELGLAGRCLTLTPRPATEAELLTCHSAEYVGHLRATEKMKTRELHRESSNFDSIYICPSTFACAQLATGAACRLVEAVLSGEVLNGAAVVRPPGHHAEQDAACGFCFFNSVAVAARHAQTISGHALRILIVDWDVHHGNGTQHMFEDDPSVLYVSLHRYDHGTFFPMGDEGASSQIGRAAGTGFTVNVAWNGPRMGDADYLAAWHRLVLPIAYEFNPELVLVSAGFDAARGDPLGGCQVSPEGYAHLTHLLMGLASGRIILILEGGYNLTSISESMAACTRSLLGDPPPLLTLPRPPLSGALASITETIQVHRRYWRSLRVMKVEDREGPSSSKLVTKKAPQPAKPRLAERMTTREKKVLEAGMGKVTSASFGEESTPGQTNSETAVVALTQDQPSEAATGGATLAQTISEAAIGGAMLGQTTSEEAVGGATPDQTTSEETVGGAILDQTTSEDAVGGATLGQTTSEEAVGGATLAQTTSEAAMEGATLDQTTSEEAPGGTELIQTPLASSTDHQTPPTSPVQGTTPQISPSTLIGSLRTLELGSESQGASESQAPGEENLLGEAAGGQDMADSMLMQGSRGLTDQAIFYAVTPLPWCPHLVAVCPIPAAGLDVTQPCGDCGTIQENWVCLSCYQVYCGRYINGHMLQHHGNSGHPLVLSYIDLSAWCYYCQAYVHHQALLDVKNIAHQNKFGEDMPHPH
Kind of assay: HDAC6 inhibition, full IC50 measurement (Reaction Biology; fluorogenic p53 peptide RHKK(Ac)AMC). The conditions noted are these: single trial. The method, then: as §1, §2

Assay [3] addresses T3, HDAC2 (Homo sapiens, UniProt Q92769).
T3 construct: purchased Reaction Biology Corporation (assay run by the CRO)
Put plainly: HDAC2 inhibition, full IC50 measurement (Reaction Biology; fluorogenic p53 peptide RHKK(Ac)AMC). The conditions noted are these: for HDAC2 activity raw data (signal): single trial. The gist of the method: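 Deacetylation of 50 μM RHKK(Ac)AMC is measured after 1 h at 30 °C in pH 8.0 Tris buffer (1% DMSO, 1 mg/ml BSA). Developer ends the reaction; the post-plateau 360/460 nm signal is fitted to IC50, averaging replicate measurements.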

Assay [4] has as its target T3, HDAC2. Put plainly: Initial HDAC2 IC50 estimate (BPS Biosciences HDAC fluorogenic assay kit). The method, then: Initial IC50 values were estimated using HDAC fluorogenic assay kits from BPS Biosciences (HDAC2, HDAC4, and HDAC6) following the protocol described in the kit. All the measures were performed in duplicates or triplicates. These measurements were done either on full range of concentrations (1:10 dilution from 1 µM to 100 pM) or on two concentrations only (20 nM and 200 nM) as an estimate of the range. […] Source Data are provided as a Source Data file.

The mark [5] stands for this setting: Supplementary Dataset 2, read-out: HDAC2 activity (initial activity).

T3 sequence (Q92769 whole entry): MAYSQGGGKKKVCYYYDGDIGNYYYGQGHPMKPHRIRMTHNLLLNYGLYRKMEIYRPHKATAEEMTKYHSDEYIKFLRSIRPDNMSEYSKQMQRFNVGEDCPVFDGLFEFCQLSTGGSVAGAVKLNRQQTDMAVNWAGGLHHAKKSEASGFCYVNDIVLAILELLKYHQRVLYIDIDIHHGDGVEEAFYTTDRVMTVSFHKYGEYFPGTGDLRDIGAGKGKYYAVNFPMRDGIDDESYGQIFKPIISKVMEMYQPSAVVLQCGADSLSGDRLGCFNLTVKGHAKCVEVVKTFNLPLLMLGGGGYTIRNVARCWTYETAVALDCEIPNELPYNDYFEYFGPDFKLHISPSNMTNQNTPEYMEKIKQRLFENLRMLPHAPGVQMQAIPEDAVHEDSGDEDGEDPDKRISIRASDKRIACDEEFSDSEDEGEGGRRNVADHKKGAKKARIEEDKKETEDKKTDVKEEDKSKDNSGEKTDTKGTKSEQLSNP
T1 sequence (O15379 whole entry): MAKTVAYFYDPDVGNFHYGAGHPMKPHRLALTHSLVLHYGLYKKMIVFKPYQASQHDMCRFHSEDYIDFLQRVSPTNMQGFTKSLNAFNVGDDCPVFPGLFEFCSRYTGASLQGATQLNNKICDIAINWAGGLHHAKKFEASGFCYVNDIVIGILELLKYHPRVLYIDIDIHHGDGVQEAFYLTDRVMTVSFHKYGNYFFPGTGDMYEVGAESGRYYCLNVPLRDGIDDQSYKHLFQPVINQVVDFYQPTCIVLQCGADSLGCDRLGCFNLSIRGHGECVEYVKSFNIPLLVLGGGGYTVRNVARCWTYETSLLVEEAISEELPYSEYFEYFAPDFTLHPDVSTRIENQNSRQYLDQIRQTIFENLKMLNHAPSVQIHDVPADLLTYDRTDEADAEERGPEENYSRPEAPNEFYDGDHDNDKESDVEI
T1 sequence (Q9Y618 395-489 partner limits assumed): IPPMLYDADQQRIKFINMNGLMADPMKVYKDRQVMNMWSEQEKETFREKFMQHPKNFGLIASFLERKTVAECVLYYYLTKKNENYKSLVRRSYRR

For `NCCCC[C@@H]1NC(=O)[C@@H](CC(N)=O)NC(=O)[C@H]2CCCN2C(=O)[C@@H](Cc2c[nH]cn2)NC(=O)[C@H](Cc2ccc(O)cc2)NC(=O)[C@H](CCCCCS)NC(=O)[C@H](CCc2ccccc2)NC1=O` [des3.2.4, SHA-Tyr-dHis-dPro-dAsn-Lys-C27] (HELM PEPTIDE1{K.[O=C([C@H](CCc1ccccc1)N[*:1])[*:2]].[O=C([C@H](CCCCCS)N[*:1])[*:2]].Y.[dH].[dP].[dN]}$PEPTIDE1,PEPTIDE1,1:R1-7:R2$$$V2.0), the “HDAC3 activity raw data (signal)” value in assay [1] (Conc. 1.00E-04 M) is -9402; in assay [1] (Conc. 1.11E-05 M) it was 593; in assay [1] (Conc. 1.23E-06 M) it was 35444; in assay [1] (Conc. 1.37E-07 M), 204357; in assay [1] (Conc. 1.52E-08 M), 337866; in assay [1] (Conc. 3.33E-05 M) it was -3894. Besides, the “HDAC3 activity raw data (signal)” value was found to be 11659 in assay [1] (Conc. 3.70E-06 M), 78893 in assay [1] (Conc. 4.12E-07 M), 259781 in assay [1] (Conc. 4.57E-08 M) and 427232 in assay [1] (Conc. 5.08E-09 M). For the same compound, the “HDAC6 activity raw data (signal)” value is recorded as -2801 in assay [2] (Conc. 1.00E-04 M); -1849 in assay [2] (Conc. 1.11E-05 M); 4374 in assay [2] (Conc. 1.23E-06 M); 43765 in assay [2] (Conc. 1.37E-07 M); 190706 in assay [2] (Conc. 1.52E-08 M); -563 in assay [2] (Conc. 3.33E-05 M). Also, the “HDAC6 activity raw data (signal)” value is reported as -1989 in assay [2] (Conc. 3.70E-06 M), 12736 in assay [2] (Conc. 4.12E-07 M), 97833 in assay [2] (Conc. 4.57E-08 M) and 278125 in assay [2] (Conc. 5.08E-09 M). Moreover, the “2-Selectivity: fold potency for HDAC2 over HDAC6” value (from here on “2-Selectivity: fold potency”) in assay [3] is on record as 0.43 fold. Also, the “HDAC2 activity raw data (signal)” value is listed as -2073 in assay [3] (Conc. 1.00E-04 M); 877 in assay [3] (Conc. 1.11E-05 M); 16887 in assay [3] (Conc. 1.23E-06 M); 156676 in assay [3] (Conc. 1.37E-07 M); 359436 in assay [3] (Conc. 1.52E-08 M); -5431 in assay [3] (Conc. 3.33E-05 M). Besides, the “HDAC2 activity raw data (signal)” value in assay [3] (Conc. 3.70E-06 M) is -8111; in assay [3] (Conc. 4.12E-07 M), 83192; in assay [3] (Conc. 4.57E-08 M) it was 254992; in assay [3] (Conc. 5.08E-09 M), 399941. In addition, in assay [4] (setting [5]), the pIC50 is 7.27.

`N=C(N)NCCC[C@H]1NC(=O)[C@H]2CCCN2C(=O)[C@@H](Cc2c[nH]cn2)NC(=O)[C@H](Cc2ccc(O)cc2)NC(=O)[C@H](CCCCCS)NC(=O)[C@H](CCc2ccccc2)NC(=O)[C@H](CCCCN)NC1=O` [des3.2.5, SHA-Tyr-dHis-dPro-dArg-Lys-C27] (HELM PEPTIDE1{K.[O=C([C@H](CCc1ccccc1)N[*:1])[*:2]].[O=C([C@H](CCCCCS)N[*:1])[*:2]].Y.[dH].[dP].[dR]}$PEPTIDE1,PEPTIDE1,1:R1-7:R2$$$V2.0): the “HDAC3 activity raw data (signal)” value in assay [1] (Conc. 1.00E-04 M) was -14418; in assay [1] (Conc. 1.11E-05 M), 6191; in assay [1] (Conc. 1.23E-06 M) it was 36941; in assay [1] (Conc. 1.37E-07 M), 210610; in assay [1] (Conc. 1.52E-08 M) it was 383928; in assay [1] (Conc. 3.33E-05 M), -3999. Moreover, the “HDAC3 activity raw data (signal)” value in assay [1] (Conc. 3.70E-06 M) came to 13003; in assay [1] (Conc. 4.12E-07 M), 93966; in assay [1] (Conc. 4.57E-08 M), 285917; in assay [1] (Conc. 5.08E-09 M) it was 409923. The “HDAC6 activity raw data (signal)” value is given as -6596 in assay [2] (Conc. 1.00E-04 M); -4177 in assay [2] (Conc. 1.11E-05 M); 2489 in assay [2] (Conc. 1.23E-06 M); 40408 in assay [2] (Conc. 1.37E-07 M); 187931 in assay [2] (Conc. 1.52E-08 M); -7167 in assay [2] (Conc. 3.33E-05 M). The “HDAC6 activity raw data (signal)” value in assay [2] (Conc. 3.70E-06 M) was determined as 1736; in assay [2] (Conc. 4.12E-07 M) it was 17454; in assay [2] (Conc. 4.57E-08 M), 101146; in assay [2] (Conc. 5.08E-09 M), 300973. Also, in assay [3], the “2-Selectivity: fold potency” value came to 0.40 fold. In addition, the “HDAC2 activity raw data (signal)” value in assay [3] (Conc. 1.00E-04 M) is on record as -10024; in assay [3] (Conc. 1.11E-05 M), -3664; in assay [3] (Conc. 1.23E-06 M), 23341; in assay [3] (Conc. 1.37E-07 M) it was 186535; in assay [3] (Conc. 1.52E-08 M), 378556; in assay [3] (Conc. 3.33E-05 M), -4061. The “HDAC2 activity raw data (signal)” value in assay [3] (Conc. 3.70E-06 M) came out at 7985; in assay [3] (Conc. 4.12E-07 M), 87059; in assay [3] (Conc. 4.57E-08 M) it was 320609; in assay [3] (Conc. 5.08E-09 M), 410566. Further, the pIC50 in assay [4] (setting [5]) is 7.02.

Take `N=C(N)NCCC[C@@H]1NC(=O)[C@@H](CCCNC(=N)N)NC(=O)[C@H]2CCCN2C(=O)[C@@H](CO)NC(=O)[C@H](Cc2ccc(O)cc2)NC(=O)[C@H](CCCCCS)NC(=O)[C@H](CCc2ccccc2)NC(=O)[C@@H](CCC(N)=O)NC(=O)[C@H](CC(=O)O)NC1=O` [des3.3.2, SHA-Tyr-dSer-dPro-dArg-Arg-Asp-dGln-C27] (HELM PEPTIDE1{D.[dQ].[O=C([C@H](CCc1ccccc1)N[*:1])[*:2]].[O=C([C@H](CCCCCS)N[*:1])[*:2]].Y.[dS].[dP].[dR].R}$PEPTIDE1,PEPTIDE1,1:R1-9:R2$$$V2.0): the “2-Selectivity: fold potency” value in assay [3] is 3 fold. In addition, the pIC50 was 7.24 in assay [4] (Supp. Table 4, rough estimates, for promising hits full measurements, read-out: HDAC2 activity (initial values for HDAC2 IC50)) and 7.30 in assay [4] (setting [5]).

These data come from PMC8185074, “Anchor extension: a structure-guided approach to design cyclic peptides targeting enzyme active sites” (Nature Communications, 2021).
